From PMC4177084 (Journal of Thyroid Research, 2014)

What was measured:
PDGFRα(T674I) = target: T1, PDGFRα(T674I) (Homo sapiens, UniProt P16234, T674I); experiment: Cell free kinase inhibition assay; format: biochemical
T1 construct: purchased Carna Biosciences, Inc. (Kobe, Japan)

EPHA1 = target: T2, EPHA1 (Homo sapiens, UniProt P21709); experiment: Cell free kinase inhibition assay; format: biochemical
T2 construct: purchased Carna Biosciences, Inc. (Kobe, Japan)

PLK1 = target: T3, PLK1 (Homo sapiens, UniProt P53350); experiment: Cell free kinase inhibition assay; format: biochemical
T3 construct: purchased Carna Biosciences, Inc. (Kobe, Japan)
T3 sequence (P53350 whole entry): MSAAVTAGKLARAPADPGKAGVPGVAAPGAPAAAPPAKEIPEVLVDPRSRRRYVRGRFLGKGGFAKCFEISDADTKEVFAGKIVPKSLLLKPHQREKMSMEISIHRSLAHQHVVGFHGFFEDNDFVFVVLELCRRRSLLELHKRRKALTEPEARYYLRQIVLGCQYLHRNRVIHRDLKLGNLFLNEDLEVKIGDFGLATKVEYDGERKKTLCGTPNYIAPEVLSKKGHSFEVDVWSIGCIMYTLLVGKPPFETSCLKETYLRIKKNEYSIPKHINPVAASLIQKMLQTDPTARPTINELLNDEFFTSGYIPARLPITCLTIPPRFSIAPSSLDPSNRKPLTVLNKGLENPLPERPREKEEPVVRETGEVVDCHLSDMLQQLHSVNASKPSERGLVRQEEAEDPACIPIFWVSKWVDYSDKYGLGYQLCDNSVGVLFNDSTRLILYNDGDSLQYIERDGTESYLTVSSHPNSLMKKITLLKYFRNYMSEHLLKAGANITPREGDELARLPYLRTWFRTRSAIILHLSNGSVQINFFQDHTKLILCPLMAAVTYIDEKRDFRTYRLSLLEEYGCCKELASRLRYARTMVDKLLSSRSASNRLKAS

[1] = tested on: human thyroid cancer cell lines; experiment: Antiproliferation assay, panel of 11 cell lines; format: cell-based; details: 9 out of the 11 cell lines, in vitro antiproliferative
Method: The human DTC cell lines K1, FTC-133, FTC-236, FTC-238, and RO82-W-1 and the human thyroid follicular epithelial cell line Nthy-ori 3-1 were obtained from DS Pharma Biomedical Co., Ltd. (Osaka, Japan). The human MTC cell line TT was obtained from the American Type Culture Collection (Manassas, VA). The human ATC cell lines 8305C, 8505C, HTC/C3, KHM-5M, and TCO-1 were obtained from the Japanese Collection of Research Bioresources Cell Bank (Osaka, Japan). […]
Cells (1,000–3,000/well) were seeded and cultured in 96-well culture plates. […] Cell numbers were determined by using WST-8 (Dojindo, Kumamoto, Japan); 10 μL of WST-8 was added to each well, and absorbance was measured at a wavelength of 450 nm and compared with a reference measurement at 660 or 665 nm by using an MTP-500 microplate reader (Corona Electric, Ibaraki, Japan) or an EnVision Multilabel Reader (Perkin Elmer, Turku, Finland). […]

KIF5B-RET (M918T) = target: T4, KIF5B-RET (M918T) (Homo sapiens, UniProt P07949+P33176, M918T); experiment: Western blot of RET phosphorylation in Nthy-ori 3-1 transfectants; format: cell-based; details: 1 h
T4 construct: KIF5B N-terminal portion (fusion partner); expressed in transfected cells; host or cells: Nthy-ori 3-1 (human normal thyroid cells), plasmid pCLxIP KIF5B-RET M918T
T4 sequence (P07949 713-1063 M918T limits assumed, one chain of several): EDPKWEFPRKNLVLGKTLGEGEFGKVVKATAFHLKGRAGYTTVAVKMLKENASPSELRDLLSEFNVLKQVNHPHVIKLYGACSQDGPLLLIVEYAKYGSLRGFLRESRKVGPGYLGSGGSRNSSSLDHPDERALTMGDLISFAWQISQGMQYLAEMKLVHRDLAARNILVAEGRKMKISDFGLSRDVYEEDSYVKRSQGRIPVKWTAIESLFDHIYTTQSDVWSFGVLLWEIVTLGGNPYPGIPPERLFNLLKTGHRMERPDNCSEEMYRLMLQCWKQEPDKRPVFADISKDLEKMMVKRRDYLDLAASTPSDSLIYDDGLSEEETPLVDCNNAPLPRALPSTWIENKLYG
Source text: (§1) The human full-length KIF5B-RET gene was chemically synthesized by GenScript Corp. (Piscataway, NJ) and then amplified by polymerase chain reaction (PCR) using a primer set containing attB recombination sequences. ENTRY vectors for the Gateway cloning system (Life Technologies) were generated via the BP Clonase reaction using the PCR products and the plasmid pDONR221. The expression vector pCLxIP KIF5B-RET was generated via the LR Clonase reaction between each ENTRY vector and the destination vector pCLxIP-DEST [37]. Expression vectors for KIF5B-RET M918T were generated by introducing a point mutation into the pCLxIP KIF5B-RET expression vector.

KIF5B-RET (wild-type) = target: T5, KIF5B-RET (wild-type) (Homo sapiens, UniProt P07949+P33176); experiment: as above; format: cell-based; details: 1 h
T5 construct: KIF5B N-terminal portion (fusion partner); expressed in transfected cells; host or cells: Nthy-ori 3-1 (human normal thyroid cells), plasmid pCLxIP KIF5B-RET
T5 sequence (P07949 713-1063 limits assumed, one chain of several): as the sequence (P07949 713-1063 M918T limits assumed, one chain of several) above, with T206M counted along it
Source text: as §1

RO82-W-1 xenograft = experiment: Human thyroid cancer xenograft model, tumor growth; format: in vivo, nude mice
Method: Nude mice (CAnN.Cg-Foxn1nu/CrlCrlj, female, 5-6 weeks old) were obtained from Charles River Laboratories Japan (Kanagawa, Japan). Mice were maintained under specific pathogen-free conditions and housed in barrier facilities on a 12 h light/dark cycle, with food and water ad libitum. All procedures using laboratory animals were done in accordance with all applicable institutional and government regulatory guidelines and policies and were performed in an animal facility accredited by the Center for Accreditation of Laboratory Animal Care of the Japan Health Sciences Foundation.
Tumor cells were cultured in appropriate culture mediums. Cells were harvested with 0.05% or 0.25% (w/v) trypsin/EDTA and suspended with 50% (v/v) BD Matrigel (BD Biosciences, San Jose, CA) in the mixture of culture mediums at a density of 5–10 × 10^7 cells/mL. Then, 0.1-0.2 mL of the cell suspension was inoculated subcutaneously into the right flank region of each mouse. […] The tumor size was measured in two dimensions by using a caliper, and the volume was calculated by using the formula: tumor volume (mm^3) = 1/2 length (mm) × [width (mm)]^2. The change in tumor volume in the treated group relative to that in the control group was calculated according to the following formula: ΔT/C = (ΔT/ΔC) × 100%, where ΔT and ΔC are the change in tumor volume (i.e., growth) for the treated and vehicle control group, respectively. The percentage of tumor growth inhibition (%TGI) was calculated from the formula: [(1 − ΔT/ΔC) × 100].
Supplementary Fig. S7 Comparison of antitumor activity with antiangiogenesis activity in human differentiated thyroid cancer RO82-W-1 xenografts in nude mice.
Nude mice bearing RO82-W-1 xenografts […]
when tumor volumes reached about 200 mm3 (day 1). The tumor volume was measured on day 22. Each group consisted of 6 mice. Data are shown as means ± SD. * P < 0.05 compared with vehicle-treated mice.
(b) The percentage of tumor growth inhibition (%TGI). Each group consisted of 6 mice. Antitumor activity was calculated as %TGI at day 22. Data are shown as means ± SD. * P < 0.05 compared […]
analyze the relationship between antitumor activity (%TGI) and antiangiogenesis activity (percentage of […]
sorafenib-treated groups were plotted on the X- and Y-axes, respectively. %TGI and %MVI was determined as described in Materials and Methods. Analysis of covariance (ANCOVA) for %TGI was examined by using %MVI as a covariate (P<0.05)

T1 sequence (P16234 24-1089 T674I): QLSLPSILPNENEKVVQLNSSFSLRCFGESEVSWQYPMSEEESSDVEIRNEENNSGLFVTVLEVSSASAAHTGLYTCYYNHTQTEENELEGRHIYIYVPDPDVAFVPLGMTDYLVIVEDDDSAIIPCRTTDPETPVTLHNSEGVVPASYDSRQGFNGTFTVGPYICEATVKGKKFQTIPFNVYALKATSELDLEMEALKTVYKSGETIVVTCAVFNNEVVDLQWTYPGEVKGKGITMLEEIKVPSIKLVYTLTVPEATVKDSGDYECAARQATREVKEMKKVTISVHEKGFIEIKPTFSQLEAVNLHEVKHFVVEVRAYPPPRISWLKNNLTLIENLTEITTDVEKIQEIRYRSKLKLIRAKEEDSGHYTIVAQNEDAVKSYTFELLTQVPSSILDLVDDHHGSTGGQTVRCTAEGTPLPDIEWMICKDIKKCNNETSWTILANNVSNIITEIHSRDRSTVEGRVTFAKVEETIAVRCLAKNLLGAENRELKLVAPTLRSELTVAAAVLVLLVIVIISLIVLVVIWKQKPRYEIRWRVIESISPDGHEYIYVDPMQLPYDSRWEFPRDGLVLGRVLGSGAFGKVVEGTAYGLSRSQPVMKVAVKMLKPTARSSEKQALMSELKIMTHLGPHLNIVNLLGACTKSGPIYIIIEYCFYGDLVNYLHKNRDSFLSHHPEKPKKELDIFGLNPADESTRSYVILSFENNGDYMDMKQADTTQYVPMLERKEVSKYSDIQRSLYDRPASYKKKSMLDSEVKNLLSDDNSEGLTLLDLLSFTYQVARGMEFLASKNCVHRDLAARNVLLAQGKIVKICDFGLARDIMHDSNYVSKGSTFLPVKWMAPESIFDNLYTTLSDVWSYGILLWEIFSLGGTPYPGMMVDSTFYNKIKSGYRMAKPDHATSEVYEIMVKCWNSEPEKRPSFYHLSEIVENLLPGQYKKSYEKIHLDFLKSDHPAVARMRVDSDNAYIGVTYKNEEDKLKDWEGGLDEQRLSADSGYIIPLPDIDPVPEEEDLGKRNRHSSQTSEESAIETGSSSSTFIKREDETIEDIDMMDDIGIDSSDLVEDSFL
T2 sequence (P21709 26-976): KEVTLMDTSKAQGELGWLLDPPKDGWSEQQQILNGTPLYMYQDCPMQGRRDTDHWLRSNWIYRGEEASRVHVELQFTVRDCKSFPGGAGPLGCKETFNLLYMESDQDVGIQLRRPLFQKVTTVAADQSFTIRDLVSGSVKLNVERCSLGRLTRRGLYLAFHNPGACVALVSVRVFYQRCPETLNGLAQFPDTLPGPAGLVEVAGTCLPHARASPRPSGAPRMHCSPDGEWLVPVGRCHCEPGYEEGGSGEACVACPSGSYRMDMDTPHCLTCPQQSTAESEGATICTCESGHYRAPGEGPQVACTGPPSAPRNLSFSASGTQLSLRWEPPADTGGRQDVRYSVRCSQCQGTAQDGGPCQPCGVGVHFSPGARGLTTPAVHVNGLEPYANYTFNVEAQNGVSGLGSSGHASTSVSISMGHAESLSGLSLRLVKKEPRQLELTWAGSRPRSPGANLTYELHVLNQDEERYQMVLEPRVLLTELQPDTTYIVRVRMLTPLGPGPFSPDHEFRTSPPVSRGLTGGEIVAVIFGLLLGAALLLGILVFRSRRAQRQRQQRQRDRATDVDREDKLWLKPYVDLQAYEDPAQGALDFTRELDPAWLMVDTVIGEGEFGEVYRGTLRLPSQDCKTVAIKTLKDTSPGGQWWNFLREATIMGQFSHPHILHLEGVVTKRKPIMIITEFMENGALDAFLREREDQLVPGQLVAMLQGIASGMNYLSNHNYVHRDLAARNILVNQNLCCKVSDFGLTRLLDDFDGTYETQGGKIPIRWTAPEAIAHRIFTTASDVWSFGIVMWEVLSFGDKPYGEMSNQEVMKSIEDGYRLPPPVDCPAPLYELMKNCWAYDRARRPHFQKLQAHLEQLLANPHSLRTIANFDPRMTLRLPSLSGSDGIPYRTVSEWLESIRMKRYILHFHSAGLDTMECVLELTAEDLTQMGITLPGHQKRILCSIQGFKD

## COc1cc2nccc(Oc3ccc(NC(=O)NC4CC4)c(Cl)c3)c2cc1C(N)=O [Lenvatinib, Lenvatinib mesilate]
PDGFRα(T674I)
  IC50: 0.63 µM
EPHA1
  IC50: 5.1 µM
PLK1
  IC50: > 10 µM
[1]
  IC50: > 10 µM
KIF5B-RET (M918T)
  phosphorylation of M918T mutant RET: inhibited
KIF5B-RET (wild-type)
  phosphorylation of wild-type RET: inhibited
RO82-W-1 xenograft; RO82-W-1 xenograft, 1, 3, and 10 mg/kg oral once daily 14 days
  antitumor activity: significant antitumor activity
RO82-W-1 xenograft; RO82-W-1 xenografts, 100 mg/kg oral once daily 21 days, %TGI day 22
  antitumor activity compared with sorafenib (300 mg/kg): significant potent antitumor activity
RO82-W-1 xenograft; RO82-W-1 xenografts, ANCOVA
  antitumor activity (%TGI) normalized for angiogenesis inhibition (%MVI), versus sorafenib: stronger antitumor activity
